According to US20250304582A1, “Bicyclic Ureas As Kinase Inhibitors” (Incyte Corporation, priority 2024, published 2025):

How the values were obtained:
[1] = molecular target: T1, pseudo-kinase domain (JH2, amino-acids 536-812) of human V617F mutant JAK2 (Homo sapiens, UniProt O60674, F794H/V617F/W659A/W777A); test: JAK2 LanthaScreen JH2-V617F Binding Assay; conditions: 50 nM Fluorescent JAK2-JH2 Tracer, 1 hour at 25° C.; read-out: JH2 BIND V617F (Ex. C)
T1 construct: JH2, amino-acids 536-812 with 3 surface mutations W659A, W777A, F794H; His (C); purchased BPS Bioscience 79498; host or cells: baculovirus expression system
Procedure, shortened: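 Biotinylated His-Avi-tagged JH2 construct (536-812, W659A/W777A/F794H) at 0.26 nM, with 50 nM fluorescent JH2 tracer and 0.25 nM streptavidin-Tb, in pH 7.5 Tris/MgCl2 buffer; 1 h at 25° C. Non-specific binding defined with 2 mM ATP. IC50 derived from TR-FRET signal by four-parameter dose-response fit.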

[2] = molecular target: T2, pseudo-kinase domain (JH2, amino-acids 536-812) of human Wild Type JAK2 (Homo sapiens, UniProt O60674, F794H/W659A/W777A); test: JAK2 LanthaScreen JH2-WT Binding Assay; conditions: 50 nM Fluorescent JAK2-JH2 Tracer, 1 hour at 25° C.; read-out: JH2 BIND WT (EX. B)
T2 construct: JH2, amino-acids 536-812 with 3 surface mutations W659A, W777A, F794H; His (C); purchased BPS Bioscience 79463; host or cells: baculovirus expression system
Procedure, shortened: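 JH2 domain (0.145 nM; His-Avi-tagged, biotinylated, baculovirus-expressed) incubated 1 h at 25° C. with compounds, 50 nM fluorescent JH2 tracer and 0.25 nM streptavidin-Tb in pH 7.5 Tris buffer with MgCl2, EGTA, DTT. Non-specific binding defined with 2 mM ATP. TR-FRET tracer displacement read; IC50 from four-parameter fit.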

[3] = molecular target: T3, catalytic domain (JH1, amino acids 826-1132) of human JAK2 (Homo sapiens, UniProt O60674); test: JAK2 LanthaScreen JH1 Binding Assay; conditions: 50 nM fluorescent JAK2-JH1 tracer, 2 hours at 25° C.; read-out: JH1 BIND (EX. A)
T3 construct: catalytic domain (JH1, amino acids 826-1132) of human JAK2; FLAG (N); purchased Carna Biosciences 08-445-20N; host or cells: baculovirus expression system
Procedure, shortened: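 FLAG-tagged biotinylated JAK2 JH1 (1.5 nM) was incubated 2 h at 25° C with compound, 50 nM fluorescent tracer and 0.5 nM Streptavidin-Tb in Tris pH 7.5 buffer. Tracer displacement read by TR-FRET; nonspecific binding defined with 2 mM ATP. IC50 from four-parameter fit.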

[4] = molecular target: T4, catalytic domain (JH1, amino acids 808-1132) of human JAK2 (Homo sapiens, UniProt O60674); test: JAK2 HTRF Enzyme Activity Assay; type: biochemical; conditions: ATP (30 μM or 1 mM; not stated which for the table), 60 minutes at 25° C.; read-out: JAK2 HTRF (Ex. D)
T4 construct: catalytic domain (JH1, amino acids 808-1132) of human JAK2; His (N); purchased BPS Bioscience 40450; host or cells: baculovirus expression system
Procedure, shortened: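 N-terminal His-tagged, baculovirus-expressed JH1 domain (0.015 nM) reacts 60 min at 25 °C with 500 nM biotinylated peptide and 30 μM or 1 mM ATP in Tris pH 7.5/10 mM MgCl2. Phosphorylation is detected by HTRF with Eu-anti-phosphotyrosine (PY20) and streptavidin-APC after EDTA stop. IC50 comes from four-parameter fits.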

T2 sequence (O60674 536-812 W659A/W777A/F794H): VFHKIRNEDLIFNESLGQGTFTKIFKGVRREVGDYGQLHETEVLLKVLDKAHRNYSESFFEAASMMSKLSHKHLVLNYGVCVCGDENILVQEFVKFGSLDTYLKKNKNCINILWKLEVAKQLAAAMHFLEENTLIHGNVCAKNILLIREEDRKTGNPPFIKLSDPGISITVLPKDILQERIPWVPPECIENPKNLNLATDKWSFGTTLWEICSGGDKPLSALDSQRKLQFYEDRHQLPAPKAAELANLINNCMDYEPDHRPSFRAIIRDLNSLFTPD
T3 sequence (O60674 826-1132): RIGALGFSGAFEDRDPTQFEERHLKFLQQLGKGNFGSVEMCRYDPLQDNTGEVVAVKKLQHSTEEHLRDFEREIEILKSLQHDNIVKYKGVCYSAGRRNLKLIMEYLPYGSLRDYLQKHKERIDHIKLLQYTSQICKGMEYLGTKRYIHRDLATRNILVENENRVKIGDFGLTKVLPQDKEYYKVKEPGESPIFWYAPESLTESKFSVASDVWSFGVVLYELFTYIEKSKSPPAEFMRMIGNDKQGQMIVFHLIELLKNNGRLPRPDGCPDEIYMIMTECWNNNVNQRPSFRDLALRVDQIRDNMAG
T4 sequence (O60674 808-1132): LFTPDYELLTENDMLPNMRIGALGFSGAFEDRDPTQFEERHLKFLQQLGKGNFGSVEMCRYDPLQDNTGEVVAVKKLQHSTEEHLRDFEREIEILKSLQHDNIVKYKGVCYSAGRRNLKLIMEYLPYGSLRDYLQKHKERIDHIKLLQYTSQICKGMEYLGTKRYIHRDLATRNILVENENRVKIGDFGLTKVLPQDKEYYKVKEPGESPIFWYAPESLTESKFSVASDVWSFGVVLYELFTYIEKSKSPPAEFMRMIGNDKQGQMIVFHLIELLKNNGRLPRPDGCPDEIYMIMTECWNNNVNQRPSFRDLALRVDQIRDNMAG
T1 sequence (O60674 536-812 V617F/W659A/W777A/F794H): as the sequence (O60674 536-812 W659A/W777A/F794H) above, with V82F counted along it

For `[2H]C([2H])([2H])n1c(=O)n([C@H]2C[C@H](NC(=O)OC)C2)c2cc(Nc3cc(C(C)(C)O)c4cccc(C(F)(F)F)c4n3)ncc21` [Example 15, Methyl ((trans)-3-(6-((4-(2-hydroxypropan-2-yl)-8-(trifluoromethyl)quinolin-2-yl)amino)-3-(methyl-d3)-2-oxo-2,3-dihydro-1H-imidazo[4,5-c]pyridin-1-yl)cyclobutyl)carbamate], the IC50 [1] was no more than 10 nM, the IC50 [2] was no more than 10 nM and the IC50 [3] was 100 to 500 nM. For the same molecule, the IC50 [4] was 100 to 500 nM.
In the case of `[2H]C([2H])([2H])n1c(=O)n([C@@H]2CC[C@@H](NC(=O)OC)C2)c2cc(Nc3ccc4cc(C#N)cc(C(F)(F)F)c4n3)ncc21` [Example 26, Methyl ((1R,3R)-3-(6-((6-cyano-8-(trifluoromethyl)quinolin-2-yl)amino)-3-(methyl-d3)-2-oxo-2,3-dihydro-1H-imidazo[4,5-c]pyridin-1-yl)cyclopentyl)carbamate], the IC50 [1] is reported as no more than 10 nM, the IC50 [2] is reported as no more than 10 nM and the IC50 [3] is reported as greater than 1000 nM. For the same molecule, the IC50 [4] was greater than 1000 nM.
